In patent publication US20250295646A1, “METHODS OF USE OF T-TYPE CALCIUM CHANNEL MODULATORS” (Praxis Precision Medicines, Inc., priority 2022, published 2025):

Tested on: adult patients with essential tremor
Assay: Example 16: video-reviewed TETRAS performance subscale and upper limb score; on TETRAS Performance Subscale Total Score by Video Review, Change from Baseline, Mean (SD): test concentration or dose not given here; on TETRAS Performance Subscale Total Score by Video Review, Change from Baseline, Median: test concentration or dose not given here; on TETRAS Performance Subscale Total Score by Video Review, Mean (SD): test concentration or dose not given here; on TETRAS Performance Subscale Total Score by Video Review, Median: test concentration or dose not given here
Format: in vivo, human
Text: Video-reviewed TETRAS Analyses Video reviewed TETRAS assessments were generally consistent with those conducted at the clinic. Video reviewed TETRAS performance subscale total scores are summarized for Part A, the open-label titration phase of Part B, and the randomized withdrawal phase of Part B in Table 42, Table 43, and Table 44.
Video reviewed upper limb score values were generally consistent with those conducted at the clinic and are summarized for Part A, the open-label titration phase of Part B, and the randomized withdrawal phase of Part B in Table 45, Table 46, and Table 47, respectively.

[1] = Day 1, 6 hours Post - dose, Part A (N = 7)
[2] = Day 1, 6 hours Post - dose, Part B Open-Label Titration Phase (N = 17)
[3] = Day 1, 6 hours Post - dose, Part B, Formula (I) arm (N = 6)
[4] = Day 7, Part B Open-Label Titration Phase (N = 17)
[5] = Day 7, Part B, Formula (I) arm (N = 6)
[6] = Day 21, Part B Open-Label Titration Phase (N = 17)

CC(C)(C)NC(=O)CN1CCC(CNC(=O)c2cc(F)cc(Cl)c2)CC1 [compound of formula (I), N-((1-(2-(tert-butylamino)-2-oxoethyl)piperidin-4-yl)methyl)-3-chloro-5-fluorobenzamide]
TETRAS Performance Subscale Total Score by Video Review, Change from Baseline, Mean (SD) [1]: 0.29 (1.753) | TETRAS Performance Subscale Total Score by Video Review, Change from Baseline, Median [1]: 0.50 | TETRAS Performance Subscale Total Score by Video Review, Mean (SD) [1]: 24.00 (5.148) | TETRAS Performance Subscale Total Score by Video Review, Median [1]: 23.00 | TETRAS Performance Subscale Total Score by Video Review, Percentage Change from Baseline in Tremor Amplitude, Mean (SD) [1]: 1.98 (11.724) % | TETRAS Performance Subscale Total Score by Video Review, Percentage Change from Baseline in Tremor Amplitude, Median [1]: 3.53% | TETRAS Upper Limb Score by Video Review, Change from Baseline, Mean (SD) [1]: 0.21 (0.859) | TETRAS Upper Limb Score by Video Review, Change from Baseline, Median [1]: 0.00 | TETRAS Upper Limb Score by Video Review, Mean (SD) [1]: 10.93 (2.440) | TETRAS Upper Limb Score by Video Review, Median [1]: 10.00 | TETRAS Upper Limb Score by Video Review, Percentage Change from Baseline in Tremor Amplitude, Mean (SD) [1]: 3.57 (14.794) % | TETRAS Upper Limb Score by Video Review, Percentage Change from Baseline in Tremor Amplitude, Median [1]: 0.00% | TETRAS Performance Subscale Total Score by Video Review, Change from Baseline, Mean (SD) [2]: −0.74 (2.544) | TETRAS Performance Subscale Total Score by Video Review, Change from Baseline, Median [2]: −0.50 | TETRAS Performance Subscale Total Score by Video Review, Mean (SD) [2]: 20.79 (6.715) | TETRAS Performance Subscale Total Score by Video Review, Median [2]: 20.50 | TETRAS Performance Subscale Total Score by Video Review, Percentage Change from Baseline in Tremor Amplitude, Mean (SD) [2]: −4.49 (15.951) % | TETRAS Performance Subscale Total Score by Video Review, Percentage Change from Baseline in Tremor Amplitude, Median [2]: −3.53% | TETRAS Upper Limb Score by Video Review, Change from Baseline, Mean (SD) [2]: −0.29 (1.238) | TETRAS Upper Limb Score by Video Review, Change from Baseline, Median [2]: 0.00 | TETRAS Upper Limb Score by Video Review, Mean (SD) [2]: 9.47 (2.809) | TETRAS Upper Limb Score by Video Review, Median [2]: 9.50 | TETRAS Upper Limb Score by Video Review, Percentage Change from Baseline in Tremor Amplitude, Mean (SD) [2]: −4.23 (19.775) % | TETRAS Upper Limb Score by Video Review, Percentage Change from Baseline in Tremor Amplitude, Median [2]: 0.00% | TETRAS Performance Subscale Total Score by Video Review, Change from Baseline, Mean (SD) [3]: −0.42 (2.973) | TETRAS Performance Subscale Total Score by Video Review, Change from Baseline, Median [3]: −0.50 | TETRAS Performance Subscale Total Score by Video Review, Mean (SD) [3]: 21.92 (4.398) | TETRAS Performance Subscale Total Score by Video Review, Median [3]: 21.75 | TETRAS Performance Subscale Total Score by Video Review, Percentage Change from Baseline in Tremor Amplitude, Mean (SD) [3]: −2.29 (18.383) % | TETRAS Performance Subscale Total Score by Video Review, Percentage Change from Baseline in Tremor Amplitude, Median [3]: −3.47% | TETRAS Upper Limb Score by Video Review, Change from Baseline, Mean (SD) [3]: 0.33 (1.125) | TETRAS Upper Limb Score by Video Review, Change from Baseline, Median [3]: 0.75 | TETRAS Upper Limb Score by Video Review, Mean (SD) [3]: 10.25 (1.666) | TETRAS Upper Limb Score by Video Review, Median [3]: 9.50 | TETRAS Upper Limb Score by Video Review, Percentage Change from Baseline in Tremor Amplitude, Mean (SD) [3]: 5.82 (19.104) % | TETRAS Upper Limb Score by Video Review, Percentage Change from Baseline in Tremor Amplitude, Median [3]: 13.30% | TETRAS Performance Subscale Total Score by Video Review, Change from Baseline, Mean (SD) (Day 7, Part A (N = 7)): −1.25 (3.094) | TETRAS Performance Subscale Total Score by Video Review, Change from Baseline, Median (Day 7, Part A (N = 7)): −1.25 | TETRAS Performance Subscale Total Score by Video Review, Mean (SD) (Day 7, Part A (N = 7)): 21.00 (2.449) | TETRAS Performance Subscale Total Score by Video Review, Median (Day 7, Part A (N = 7)): 21.75 | TETRAS Performance Subscale Total Score by Video Review, Percentage Change from Baseline in Tremor Amplitude, Mean (SD) (Day 7, Part A (N = 7)): −7.45 (19.377) % | TETRAS Performance Subscale Total Score by Video Review, Percentage Change from Baseline in Tremor Amplitude, Median (Day 7, Part A (N = 7)): −8.23% | TETRAS Upper Limb Score by Video Review, Change from Baseline, Mean (SD) (Day 7, Part A (N = 7)): −0.25 (1.332) | TETRAS Upper Limb Score by Video Review, Change from Baseline, Median (Day 7, Part A (N = 7)): 0.00 | TETRAS Upper Limb Score by Video Review, Mean (SD) (Day 7, Part A (N = 7)): 9.83 (0.816) | TETRAS Upper Limb Score by Video Review, Median (Day 7, Part A (N = 7)): 10.00 | TETRAS Upper Limb Score by Video Review, Percentage Change from Baseline in Tremor Amplitude, Mean (SD) (Day 7, Part A (N = 7)): −3.79 (22.054) % | TETRAS Upper Limb Score by Video Review, Percentage Change from Baseline in Tremor Amplitude, Median (Day 7, Part A (N = 7)): 0.00% | TETRAS Performance Subscale Total Score by Video Review, Change from Baseline, Mean (SD) [4]: −2.28 (5.019) | TETRAS Performance Subscale Total Score by Video Review, Change from Baseline, Median [4]: −3.50 | TETRAS Performance Subscale Total Score by Video Review, Mean (SD) [4]: 20.17 (6.595) | TETRAS Performance Subscale Total Score by Video Review, Median [4]: 20.50 | TETRAS Performance Subscale Total Score by Video Review, Percentage Change from Baseline in Tremor Amplitude, Mean (SD) [4]: −13.83 (27.204) % | TETRAS Performance Subscale Total Score by Video Review, Percentage Change from Baseline in Tremor Amplitude, Median [4]: −22.26% | TETRAS Upper Limb Score by Video Review, Change from Baseline, Mean (SD) [4]: −1.15 (1.916) | TETRAS Upper Limb Score by Video Review, Change from Baseline, Median [4]: −1.50 | TETRAS Upper Limb Score by Video Review, Mean (SD) [4]: 8.75 (2.880) | TETRAS Upper Limb Score by Video Review, Median [4]: 8.50 | TETRAS Upper Limb Score by Video Review, Percentage Change from Baseline in Tremor Amplitude, Mean (SD) [4]: −17.86 (27.226) % | TETRAS Upper Limb Score by Video Review, Percentage Change from Baseline in Tremor Amplitude, Median [4]: −25.01% | TETRAS Performance Subscale Total Score by Video Review, Change from Baseline, Mean (SD) [5]: −2.00 (2.291) | TETRAS Performance Subscale Total Score by Video Review, Change from Baseline, Median [5]: −1.50 | TETRAS Performance Subscale Total Score by Video Review, Mean (SD) [5]: 20.33 (2.754) | TETRAS Performance Subscale Total Score by Video Review, Median [5]: 20.50 | TETRAS Performance Subscale Total Score by Video Review, Percentage Change from Baseline in Tremor Amplitude, Mean (SD) [5]: −12.63 (13.986) % | TETRAS Performance Subscale Total Score by Video Review, Percentage Change from Baseline in Tremor Amplitude, Median [5]: −10.23% | TETRAS Upper Limb Score by Video Review, Change from Baseline, Mean (SD) [5]: −0.88 (1.031) | TETRAS Upper Limb Score by Video Review, Change from Baseline, Median [5]: −1.00 | TETRAS Upper Limb Score by Video Review, Mean (SD) [5]: 9.00 (0.913) | TETRAS Upper Limb Score by Video Review, Median [5]: 9.00 | TETRAS Upper Limb Score by Video Review, Percentage Change from Baseline in Tremor Amplitude, Mean (SD) [5]: −14.41 (17.112) % | TETRAS Upper Limb Score by Video Review, Percentage Change from Baseline in Tremor Amplitude, Median [5]: −17.46% | TETRAS Performance Subscale Total Score by Video Review, Change from Baseline, Mean (SD) (Day 14, Part A (N = 7)): −2.92 (2.654) | TETRAS Performance Subscale Total Score by Video Review, Change from Baseline, Median (Day 14, Part A (N = 7)): −3.00 | TETRAS Performance Subscale Total Score by Video Review, Mean (SD) (Day 14, Part A (N = 7)): 19.33 (2.380) | TETRAS Performance Subscale Total Score by Video Review, Median (Day 14, Part A (N = 7)): 19.00 | TETRAS Performance Subscale Total Score by Video Review, Percentage Change from Baseline in Tremor Amplitude, Mean (SD) (Day 14, Part A (N = 7)): −17.69 (15.649) % | TETRAS Performance Subscale Total Score by Video Review, Percentage Change from Baseline in Tremor Amplitude, Median (Day 14, Part A (N = 7)): −19.21% | TETRAS Upper Limb Score by Video Review, Change from Baseline, Mean (SD) (Day 14, Part A (N = 7)): −1.33 (1.080) | TETRAS Upper Limb Score by Video Review, Change from Baseline, Median (Day 14, Part A (N = 7)): −1.50 | TETRAS Upper Limb Score by Video Review, Mean (SD) (Day 14, Part A (N = 7)): 8.75 (1.294) | TETRAS Upper Limb Score by Video Review, Median (Day 14, Part A (N = 7)): 9.25 | TETRAS Upper Limb Score by Video Review, Percentage Change from Baseline in Tremor Amplitude, Mean (SD) (Day 14, Part A (N = 7)): −21.27 (17.102) % | TETRAS Upper Limb Score by Video Review, Percentage Change from Baseline in Tremor Amplitude, Median (Day 14, Part A (N = 7)): −24.67% | TETRAS Performance Subscale Total Score by Video Review, Change from Baseline, Mean (SD) (Day 21, Part A (N = 7)): −1.00 (3.146) | TETRAS Performance Subscale Total Score by Video Review, Change from Baseline, Median (Day 21, Part A (N = 7)): −0.75 | TETRAS Performance Subscale Total Score by Video Review, Mean (SD) (Day 21, Part A (N = 7)): 21.25 (2.734) | TETRAS Performance Subscale Total Score by Video Review, Median (Day 21, Part A (N = 7)): 21.75 | TETRAS Performance Subscale Total Score by Video Review, Percentage Change from Baseline in Tremor Amplitude, Mean (SD) (Day 21, Part A (N = 7)): −5.84 (20.134) % | TETRAS Performance Subscale Total Score by Video Review, Percentage Change from Baseline in Tremor Amplitude, Median (Day 21, Part A (N = 7)): −4.59% | TETRAS Upper Limb Score by Video Review, Change from Baseline, Mean (SD) (Day 21, Part A (N = 7)): −0.67 (1.602) | TETRAS Upper Limb Score by Video Review, Change from Baseline, Median (Day 21, Part A (N = 7)): −0.25 | TETRAS Upper Limb Score by Video Review, Mean (SD) (Day 21, Part A (N = 7)): 9.42 (1.320) | TETRAS Upper Limb Score by Video Review, Median (Day 21, Part A (N = 7)): 9.50 | TETRAS Upper Limb Score by Video Review, Percentage Change from Baseline in Tremor Amplitude, Mean (SD) (Day 21, Part A (N = 7)): −9.56 (25.141) % | TETRAS Upper Limb Score by Video Review, Percentage Change from Baseline in Tremor Amplitude, Median (Day 21, Part A (N = 7)): −4.16% | TETRAS Performance Subscale Total Score by Video Review, Change from Baseline, Mean (SD) [6]: −0.96 (3.122) | TETRAS Performance Subscale Total Score by Video Review, Change from Baseline, Median [6]: −1.00 | TETRAS Performance Subscale Total Score by Video Review, Mean (SD) [6]: 21.67 (5.809) | TETRAS Performance Subscale Total Score by Video Review, Median [6]: 21.25 | TETRAS Performance Subscale Total Score by Video Review, Percentage Change from Baseline in Tremor Amplitude, Mean (SD) [6]: −5.66 (18.983) % | TETRAS Performance Subscale Total Score by Video Review, Percentage Change from Baseline in Tremor Amplitude, Median [6]: −6.88% | TETRAS Upper Limb Score by Video Review, Change from Baseline, Mean (SD) [6]: −0.67 (1.628) | TETRAS Upper Limb Score by Video Review, Change from Baseline, Median [6]: −0.50
